According to patent US12509727B2, “Composition for diagnosis of Sjögren's syndrome” (THE CATHOLIC UNIVERSITY OF KOREA INDUSTRY-ACADEMIC …, priority 2017, dated 2025):

How the values were obtained:
Assay type in all cases: in vivo, human
[1] = system: Sjögren's syndrome dry eye patients; assay: Clinical evaluation of ocular surface parameters before and after topical corticosteroid treatment; conditions: SS DE patients, after one month topical corticosteroid with artificial tears, mean ± SD
Method: […] participated in this Example (FIG. 1): 40 patients with Sjögren's syndrome dry eye (SS DE) (78 eyes), 24 patients with non-Sjögren's syndrome dry eye (non-SS DE) (48 eyes), and 16 normal healthy subjects as controls (25 eyes). 16 patients of the 40 patients with Sjögren's syndrome dry eye were treated with topical corticosteroid (4 times per one day for 1 month, 0.1% fluoromeladone, Sam-II Pharmaceutics Co. Seoul, Korea). […] All patients with Sjögren's syndrome dry eye were diagnosed with primary Sjögren's syndrome by a rheumatologist according to the 2012 Sjögren's International Collaborative Clinical Alliance (SICCA) classification criteria. This study excluded Sjögren's syndrome patients or subjects who had been treated with disease-modifying therapies. Due to the unique prevalence of females and males found in Sjögren's syndrome (F:M=9:1), only female patients participated in the study for the prevention of the data misinterpretation. Exclusion criteria were pregnant women, nurses, contact lens wearers, tear point closure patients, persons with eye surgery within 6 months, persons with acute or chronic eye disease other than dry eye syndrome, persons with concomitant allergies, persons with eyelid abnormalities, persons with Grade 2 or higher dysfunction of the meibomian gland. This study also excluded, as a subject, persons who had received other systemic treatments or other topical treatments other than artificial tears within the past 3 months.
The following ocular surface examinations were conducted on the 82 subjects; Schirmer I test, tear film breakup time (TBUT), ocular surface staining (OSS) score, and ocular surface disease index (OSDI) questionnaire.
The Schirmer I test was performed without anesthesia before injecting the drug into the eye. The standard Schirmer's strips were placed on the side ⅓ of the lower eyelid. After 5 minutes, the strips' wetness was measured by using a millimeter scale of the strips (Eagle Vision, Memphis, TN). Tear strips were cut horizontally and placed in cryovials. They were stored frozen for further analysis. To assess TBUT, one drop of the saline without preservatives was added to a fluorescein strip (Haag-Streit, Koeniz, Switzerland). It was applied to the conjunctiva of the lower eyelid. The patients blinked their eye 3 to 4 times for a few seconds for mixing thoroughly with the dye. Then, the test was conducted by using a slit lamp with cobalt blue light. The time until the defect appeared in the stained tear film was measured and recorded as TBUT. TBUT was measured three times and the score was averaged. OSS scores including conjunctival and corneal staining scores were evaluated according to the SICCA registry ocular examination protocol. First, one drop of 2% sterile fluorescein was put on the conjunctival sac to permeate. After one minute, the corneal staining score was assessed by evaluating fluorescein staining using a slit lamp with cobalt blue filter. The punctate epithelial erosions (PEE) stained with fluorescein were calculated and scored. When there is no PEE, the score is zero. When PEE is 1 to 5, the corneal score is 1; When PEE is 6 to 30, the score is 2; When PEE exceeds 30, the score is 3. Additional points were added when there were one or more fused staining portions, when there was staining in the pupil area of the cornea, or when there were one or more filaments in any part of the cornea. The maximum available score is 6 for each cornea. In order to measure the conjunctival staining score, fluorescein was washed with the saline without preservatives. Then, one drop of 1% Lissamine green dye (Leiter's Pharmacy San Jose, California) was applied to the lower conjunctival fornix of both eyes. […]

LC3B-II/I protein ratio = assay: Western blotting of tears, relative concentration measurement, after corticosteroid treatment; conditions: tears of SS DE patients; level before treatment 1.87±0.10; statistically significantly decreased
Method: (§1) Tears were collected from the Schirmer strips which absorbed the tear fluid as in Example 1. In order to extract tears, the Schirmer strips were placed in tubes containing extraction buffer (NaCl 0.5 M, Tween 20 0.5% in PBS). After one hour, the strips were transferred to a 0.5 ml tube with a hole at the bottom thereof using a cannula. The tube was inserted into a larger tube (1.5 ml). It was centrifuged at 12,000 rpm for 15 minutes. The centrifugal force caused the fluid to be drawn from the strip. Thus, the tear fluid passed through the center hole at the bottom of the small tube and was collected into the external 1.5 ml tube. The tear fluid was mixed with the sample-loading buffer, heated for 10 minutes, and centrifuged. Then, the protein concentration in the clear isolate was determined by using the BCA protein assay kit (Thermo Fisher Scientific, Rockford, IL). […] The improved chemical luminescence reagent (ECL; Amersham Biosciences, Sweden) was used to detect the protein band. […]
(§2) After applying topical corticosteroids to Sjögren's syndrome dry eye patients, change in the clinical parameters was assessed as well as autodigestion marker expression. After one month with topical corticosteroid therapy with artificial tears, OSDI score, Schirmer I value, TBUT, corneal staining, conjunctival staining, and OSS score were measured as in Example 1. […]

ATG5 protein = assay: as above; conditions: tears of SS DE patients; level before treatment 5.06±0.31; statistically significantly decreased
Method: as §1, §2

LC3B-II mRNA = assay: Real-time PCR of conjunctival epithelial cells (impression cytology) after corticosteroid treatment; conditions: conjunctival epithelial cells of SS DE patients; level before treatment 12.93±4.44; statistically significantly decreased
Method: (§3) IC was carried out 15 minutes after the last stained eye solution was permeated by using a polyethersulfone filter (Suopor 200 membrane, Pall Corporation, Port Washington, New York). The filter paper was cut in half (13×6.5 mm). The sides were attached on the upper side-nasal and the upper side-temporal bulbar conjunctiva, respectively. With 0.05% paraformaldehyde (PFA), the filter attached on the upper side-nasal conjunctiva was transferred into a tube containing 2 ml of PBS for immunostaining. The paper attached on the upper side-temporal conjunctiva was collected from the filter paper up to 3 hours for the RNA extraction.
(§4) RNAs were isolated from IC using TRIzol reagent (Gibco-Invitrogen, Grand Island, New York) according to the modified protocol (Barabino S et al., Immune response in the conjunctival epithelium of patients with dry eye. Experimental eye research 2010; 91: 524-9). […] The […] method was used for relative quantification. […]
as §2

ATG5 mRNA = assay: as above; conditions: conjunctival epithelial cells of SS DE patients; level before treatment 13.16±4.36; statistically significantly decreased
Method: as §3, §4, §2

[2] = system: autodigestion marker (ATG5 and LC3B-II) in the conjunctiva; assay: Immunostaining of ATG5 and LC3B-II of conjunctiva before and after corticosteroid treatment; conditions: SS DE patients after the corticosteroid treatment; representative immunohistochemical images
Method: as §3
The IC filter paper having isolated epithelial cells was firmly pressed against a silane-coated slide (Muto Pure Chemicals Co., ltd. Tokyo, Japan). Thus, the epithelial cells were transferred onto the slide. They were used for immunofluorescence staining according to the Baudouins protocol. […]
as §2

CC(=O)[C@@]1(O)CC[C@H]2[C@@H]3C[C@H](C)C4=CC(=O)C=C[C@]4(C)[C@@]3(F)[C@@H](O)C[C@@]21C [corticosteroid, fluoromeladone]
Conjunctival staining score (0-6), after treatment ([1]; before treatment 2.13 ± 1.90, P 0.0018): 1.06 ± 1.70
TBUT, after treatment ([1]; before treatment 2.16 ± 2.22, P 0.0007): 3.84 ± 1.90 s
Schirmer value, after treatment ([1]; before treatment 2.34 ± 1.66, P 0.0088): 3.78 ± 2.41 mm
Corneal staining score (0-6), after treatment ([1]; before treatment 2.78 ± 1.10, P <0.0001): 1.59 ± 1.21
Ocular surface staining score (0-12), after treatment ([1]; before treatment 4.84 ± 3.08, P <0.0001): 2.53 ± 2.55
OSDI score (0-100), after treatment ([1]; before treatment 50.19 ± 19.17, P 0.0411): 39.80 ± 17.89
LC3B-II/I protein ratio in tears after corticosteroid treatment (LC3B-II/I protein ratio): ~1.27±0.08 times in change
ATG5 protein (vs β-actin) in tears after corticosteroid treatment (ATG5 protein): approximately 0.88±0.07 times in change
LC3B-II gene encoding level after corticosteroid treatment (LC3B-II mRNA): ~2.57±0.48 times in change
ATG5 gene encoding level after corticosteroid treatment (ATG5 mRNA): approximately 1.23±0.27 times in change
staining spotting pattern of the autodigestion marker in the conjunctiva [2]: normalized
